Source: patent US7825270B2, “Inositolphospholipids and analogues: phosphatidylinositol products and processes” (Nutrimed Biotech, priority 2005, dated 2010)
Values belong to the substance of their own block, whether it stands above or below them.

Legend:
[1] = test system: epithelial cell proliferation; settings: cited from earlier work
[2] = solubility in organic solvents; format: physicochemical; settings: alcohol, acetone, ethyl acetate or methanol
HDL-C levels = settings: administration of PI, humans; cited from earlier work

Substance: D-myo-inositol 4-(hexadecyloxy)-3(S)methoxy-butane-phosphonate
inhibition of epithelial cell proliferation [1]: inhibit epithelial cell proliferation

solubility in solvents [2]: dissolved easily
Substance: Soy PI-2,3,4,5,6-penta-O-tetrahydropyranyl ether

Substance: phosphatidylinositol [PI]
effect on HDL-C levels (HDL-C levels): raises HDL-C levels
